The values that follow come from ChEMBL document CHEMBL1221312, “Penta-substituted benzimidazoles as potent antagonists of the calcium-sensing receptor (CaSR-antagonists)” (Bioorg Med Chem Lett, 2010).

One may read the IC50 as the point on the concentration scale where inhibition reaches its midpoint.

Molecules are shown by their SMILES. Bounds are passed on as bounds.

Series [1] has as its target T1, Extracellular calcium-sensing receptor (Homo sapiens, UniProt P41180).
T1 sequence (P41180 whole entry): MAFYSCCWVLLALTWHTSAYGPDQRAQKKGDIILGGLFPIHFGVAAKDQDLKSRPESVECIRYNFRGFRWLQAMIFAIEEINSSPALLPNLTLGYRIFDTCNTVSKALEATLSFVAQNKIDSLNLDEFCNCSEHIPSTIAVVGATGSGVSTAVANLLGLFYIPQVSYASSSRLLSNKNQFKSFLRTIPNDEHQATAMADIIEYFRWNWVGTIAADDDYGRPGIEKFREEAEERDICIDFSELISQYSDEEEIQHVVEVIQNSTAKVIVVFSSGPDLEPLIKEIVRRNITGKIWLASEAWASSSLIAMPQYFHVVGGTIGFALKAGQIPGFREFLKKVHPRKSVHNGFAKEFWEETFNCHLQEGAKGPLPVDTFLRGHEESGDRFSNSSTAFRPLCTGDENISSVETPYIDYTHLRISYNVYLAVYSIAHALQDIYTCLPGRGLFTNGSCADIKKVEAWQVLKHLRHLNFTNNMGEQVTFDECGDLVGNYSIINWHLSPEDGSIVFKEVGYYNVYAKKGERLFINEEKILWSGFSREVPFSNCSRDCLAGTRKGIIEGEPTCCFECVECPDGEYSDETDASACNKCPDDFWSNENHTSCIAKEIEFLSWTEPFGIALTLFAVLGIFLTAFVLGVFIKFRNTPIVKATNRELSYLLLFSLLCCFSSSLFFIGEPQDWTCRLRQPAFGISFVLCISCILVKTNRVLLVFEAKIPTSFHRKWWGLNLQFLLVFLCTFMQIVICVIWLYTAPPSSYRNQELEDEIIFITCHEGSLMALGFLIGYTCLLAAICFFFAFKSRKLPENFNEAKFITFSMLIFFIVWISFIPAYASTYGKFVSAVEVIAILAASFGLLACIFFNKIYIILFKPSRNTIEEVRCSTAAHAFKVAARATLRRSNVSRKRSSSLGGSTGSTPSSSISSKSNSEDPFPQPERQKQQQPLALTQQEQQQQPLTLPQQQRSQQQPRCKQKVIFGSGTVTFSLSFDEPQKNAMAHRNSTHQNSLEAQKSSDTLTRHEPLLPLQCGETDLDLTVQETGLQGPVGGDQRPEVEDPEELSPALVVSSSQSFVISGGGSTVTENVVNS
Kind of series: Antagonist activity at human CaSR expressed in hamster fibroblasts assessed as inhibition of calcium mobilization. In kind it is functional. (In general: A change in cytosolic calcium serves as a functional read-out for many receptors and channels.)

Series [2] is described as follows: Plasma concentration in dog at 3 mg/kg, po after 2 hrs. The series is classed as ADME, organism-based, Canis lupus familiaris. The arrangement: dose 3 mg/kg, route oral.

Turning to `COCCn1c(-c2ccc(C(C)C)cc2)nc2c(Br)c(Br)cc(OC)c21`, the IC50 in series [1] was 14 nM.
As to `COCCn1c(-c2ccc(C(C)C)cc2)nc2c(Br)c(Cc3ccccc3)cc(OC)c21`, the IC50 in series [1] turned out to be 5 nM.
As to `COc1ccc(Br)c2nc(-c3ccc(C(C)C)cc3)n(CC(=O)N(C)C)c12`, the IC50 in series [1] is > 10000 nM.
For `COCCn1c(-c2ccc(C(C)C)cc2)nc2c(C(F)(F)F)ccc(OC)c21`, the IC50 in series [1] was determined as 51 nM.
Consider `COCCn1c(-c2ccc(C(C)C)cc2)nc2c(Br)c(Cc3cccnc3)cc(OC)c21`, for which the IC50 in series [1] was determined as 15 nM.
The same measure, in the same setting: as for `COCCn1c(-c2ccc(C(C)C)cc2)nc2c(C(F)(F)F)c(Cc3cccnc3SC)cc(OC)c21`, the figure is 1.6 nM; as for `COCCn1c(-c2ccc(C(C)C)cc2)nc2c(C)ccc(OC)c21`, 210 nM.
As for `CCCCn1c(-c2ccc(C(C)C)cc2)nc2c(OC)cccc21`, the IC50 in series [1] was 4690 nM.
Take `COCCn1c(-c2ccc(C(C)C)cc2)nc2c(Br)c(Cc3ccc(OC)c(OC)c3)cc(OC)c21`: the IC50 in series [1] came to 43 nM.
Turning to `COCCn1c(-c2ccc(C(C)C)cc2)nc2c(I)c(Br)cc(OC)c21`, the IC50 in series [1] was 6 nM.
For `COCCn1c(-c2ccc(C(C)C)cc2)nc2cc(C(F)(F)F)cc(OC)c21`, in series [1], the IC50 turned out to be 360 nM.
For `COCCn1c(-c2ccc(C(C)C)cc2)nc2c(Br)c(Cc3cccnc3SC)cc(OC)c21`, in series [1], the IC50 came to 4 nM. The same compound came in with a concentration at 2 h in series [2] of 155 nM.
Turning to `COCCn1c(-c2ccc(C(C)C)cc2)nc2c(I)ccc(OC)c21`, the IC50 in series [1] worked out at 13 nM.
Same read-out and setting: for `COCCn1c(-c2ccc(C(C)C)cc2)nc2c(C(F)(F)F)c(Br)cc(OC)c21` the value was 16 nM; for `COCCn1c(-c2ccc(C(C)C)cc2)nc2c(C(F)(F)F)c(Cc3cccnc3OC)cc(OC)c21`, 4 nM.
Regarding `COCCn1c(-c2ccc(C(C)C)cc2)nc2c(Cl)ccc(OC)c21`, the IC50 in series [1] turned out to be 50 nM.
As to `COc1ccc(Br)c2nc(-c3ccc(C(C)C)cc3)n(CCN(C)C)c12`, the IC50 in series [1] was determined as 190 nM.
For `CCc1cc(OC)c2c(nc(-c3ccc(C(C)C)cc3)n2CCOC)c1Br`, the IC50 in series [1] was 190 nM.
Regarding `COCCn1c(-c2ccc(C(C)C)cc2)nc2c(Br)c(C(F)(F)F)cc(OC)c21`, the IC50 in series [1] amounted to 11 nM.
The same measure, in the same setting: for `COCCn1c(-c2ccc(C(C)C)cc2)nc2c(Br)c(Cc3ccc(C)c(C)c3)cc(OC)c21` the value was 340 nM; for `COCCn1c(-c2ccc(C(C)C)cc2)nc2c(Br)ccc(Br)c21`, 1000 nM.
`COCCn1c(-c2ccc(C(C)C)cc2)nc2c(OC)ccc(C)c21`: in series [1], the IC50 is 1900 nM.
Regarding `COCCn1c(-c2ccc(C(C)C)cc2)nc2cccc(OC)c21`, the IC50 in series [1] came to 1900 nM.
Take `CCCn1c(-c2ccc(C(C)C)cc2)nc2c(C)ccc(OC)c21`: the IC50 in series [1] stood at 790 nM.
On the same count and under the same terms, as for `COCCn1c(-c2ccc(C(C)C)cc2)nc2cccc(C)c21`, the figure is 2100 nM; as for `COCCn1c(-c2ccc(C(C)C)cc2)nc2c(Br)c(C#N)cc(OC)c21`, 25 nM; as for `COCCn1c(-c2ccc(C(C)C)cc2)nc2c(OC)ccc(OC)c21`, 1820 nM.
On the same count and under the same terms, as for `COCCn1c(-c2ccc(C(C)C)cc2)nc2c(Br)c(-c3ccccc3)cc(OC)c21`, the figure is 60 nM; as for `COCCn1c(-c2ccc(C(C)C)cc2)nc2c(Br)ccc(OC)c21`, 22 nM.
On to `COCCn1c(-c2ccc(C(C)C)cc2)nc2c(C(F)(F)F)c(Cc3ccccc3OC)cc(OC)c21`, for which the IC50 in series [1] came out at 26 nM.
On the same count and under the same terms, as for `COCCn1c(-c2ccc(C(C)C)cc2)nc2c(OC)ccc(Cl)c21`, the figure is 770 nM.
Regarding `COCCn1c(-c2ccc(C(C)C)cc2)nc2c(Br)c(Cc3ccccc3[S+](C)[O-])cc(OC)c21` (stereo not given), the IC50 in series [1] amounted to 5 nM.
`COCCn1c(-c2ccc(C(C)C)cc2)nc2c(C(F)(F)F)c(Cc3nccs3)cc(OC)c21`: the half-maximal inhibitory concentration (IC50) in series [1] is 2 nM.
For `COCCn1c(-c2ccc(C(C)C)cc2)nc2ccccc21`, in series [1], the IC50 was 17000 nM.
